For experiment [1], the target named is T1, P2X7 receptor (mP2X7R) (Mus musculus, UniProt Q9Z1M0).
T1 construct: gene P2rx7
T1 sequence (Q9Z1M0 1-595): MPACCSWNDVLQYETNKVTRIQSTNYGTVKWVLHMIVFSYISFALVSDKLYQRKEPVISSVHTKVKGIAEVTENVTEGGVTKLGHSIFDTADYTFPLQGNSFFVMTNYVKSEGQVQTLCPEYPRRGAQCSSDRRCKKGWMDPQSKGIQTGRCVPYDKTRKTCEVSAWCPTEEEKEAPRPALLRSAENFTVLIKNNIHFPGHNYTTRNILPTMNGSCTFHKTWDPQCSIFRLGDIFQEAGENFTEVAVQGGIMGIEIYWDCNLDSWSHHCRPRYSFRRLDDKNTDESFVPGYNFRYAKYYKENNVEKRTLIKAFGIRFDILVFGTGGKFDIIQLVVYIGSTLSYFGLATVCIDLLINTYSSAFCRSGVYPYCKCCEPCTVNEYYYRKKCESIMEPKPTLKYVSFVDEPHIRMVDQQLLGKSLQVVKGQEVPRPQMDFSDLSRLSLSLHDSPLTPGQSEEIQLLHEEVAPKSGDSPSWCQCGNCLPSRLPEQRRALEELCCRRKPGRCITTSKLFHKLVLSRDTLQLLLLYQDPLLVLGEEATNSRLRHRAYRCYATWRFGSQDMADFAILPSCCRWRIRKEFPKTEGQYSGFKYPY
Description: ATP/BzATP-induced YO-PRO-1 uptake and Ca2+ influx in RAW […] cells. The class given is cell-based.

Another experiment addresses T2, P2X7 receptor (hP2X7) (Homo sapiens, UniProt Q99572).
T2 construct: gene P2RX7
T2 sequence (Q99572 47-334): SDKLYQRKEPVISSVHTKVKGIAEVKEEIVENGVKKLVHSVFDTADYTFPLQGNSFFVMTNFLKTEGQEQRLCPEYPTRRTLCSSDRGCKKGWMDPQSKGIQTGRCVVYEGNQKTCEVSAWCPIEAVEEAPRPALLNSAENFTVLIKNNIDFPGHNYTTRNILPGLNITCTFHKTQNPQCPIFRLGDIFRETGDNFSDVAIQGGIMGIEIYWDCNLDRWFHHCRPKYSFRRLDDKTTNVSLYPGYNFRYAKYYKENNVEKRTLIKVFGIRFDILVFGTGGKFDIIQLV
Description: SPR (Biacore […], CM5 chip, Langmuir […]). The class given is binding.

Experiment [2] addresses T1, P2X7 receptor (mP2X7R). Description: BzATP/ATP-induced YO-PRO-1 uptake and Ca2+ influx in RAW […] cells. The class given is cell-based.

SMILES strings stand for the structures.

For orientation: inhibition means the change of the read-out against control, counted positive when it falls. The low end stands for a response near the control, the high end for a response far below the control. By Kd is commonly meant a measure of binding affinity in units of concentration.

In turn, `Clc1cccc(-c2nnnn2Cc2cccnc2)c1Cl` [A438079] had an inhibition at 10 µM against P2X7 receptor (mP2X7R) [1] of 48.3%.
Turning to `Cc1c(C)c(O)c2c(c1O)C(=O)C1=C(S[C@@H]3O[C@H](CO)[C@@H](O)[C@H](O)[C@H]3O1)C2=O` [compound 4], the Kd at P2X7 receptor (hP2X7) was found to be 13 µM. On P2X7 receptor (mP2X7R) [2], the inhibition at 0.1 µM is 52.7%.

These data come from PMC10418395, “Tetracyclic 1,4-Naphthoquinone Thioglucoside Conjugate U-556 Blocks the Purinergic P2X7 Receptor in Macrophages and Exhibits Anti-Inflammatory Activity In Vivo” (International Journal of Molecular Sciences, 2023).
